# US20190358181A1, “METHODS FOR AUTISM SPECTRUM DISORDER PHARMACOTHERAPY” (priority 2017, published 2019)
# Tested on: males with ASD
# Assay: Clinical Global Impression (CGI) 24-question instrument, SAT-1 trial
# Type: in vivo, human
# Settings: for Difference from baseline (mean ± sd) / d (Cohen's d): 45 days after treatment
# Description: Two observational examinations were performed by a clinician at 3 time points: baseline (56±8 days; mean±SEM; before the infusion), 2-days post-infusion, and 6-weeks post-infusion. The two examiner-based metrics were the Autism Diagnostic Observation Schedule, 2nd edition (ADOS-2) with video and audio files recorded on 3 cameras, and the Expressive One Word Picture Vocabulary Testing (EOWPVT). Both of these observational metrics were administered by a trained and certified examiner using approved test materials. Three standardized questionnaires were completed by parents at 3 time points: baseline, 7-days post-infusion, and 6-weeks post-infusion. The three standardized questionnaires completed by parents were the 58-question Aberrant Behavior Checklist (ABC), the 75-item Autism Treatment Evaluation Checklist (ATEC), and the 33-item repetitive behavior questionnaire (RBQ). Parents were asked to complete these three instruments with reference to how their child behaved in the previous 7 days. At the end of the six weeks, we included a 24-question Clinical Global Impression (CGI) questionnaire (FIG. 16). In addition, parents were asked to list the 3 top behaviors or symptoms that they observed to be most changed over the previous 6-weeks. To minimize the misinterpretation of natural day-to-day variations in symptoms, parents were asked to mark a symptom as changed in the 6-week CGI only if it had lasted for at least 1 week.
# We developed a 24-question Clinical Global Impression (CGI) instrument designed to assess the core symptoms of autism spectrum disorders and some of the most common comorbid features (FIG. 16). The CGI instrument scoring system was the traditional 7-point, CGI-Improvement scale. See, for e.g. Busner and Targum. Psychiatry. 2007(4):28-37. In this scale, the historian gives a score of 0 if the symptom “was never a problem”, a 1 for “very much improved”, a 4 for “no change”, and a 7 for “very much worse”. In addition to the 24 structured questions, we asked the parents to write in the top 3 symptoms or behaviors that were most changed over the 6 weeks since the suramin infusion. This hybrid design of structured and open-ended responses permitted us to capture a large number of clinical outcomes associated with single dose suramin treatment.
# For the test dose, 50 mg of suramin hexasodium (Bayer Pharmaceuticals, Inc.) in 5 mL of saline (experimental arm, 5 patients), or 5 mL of saline only (control arm, 5 patients) were given by slow intravenous (IV) push over 3 minutes, followed by a 10 mL flush of saline. One hour after the test dose, vital signs were repeated and a single infusion of either suramin (20 mg/kg, minus the 50 mg test dose, in 50 mL, up to a maximum of 1 gram) or saline (50 mL IV) was given over 30 minutes, followed by a 10 mL flush of saline.
# Behavioral and neurological effects of treatment were assessed primarily by the examiner-based ADOS-2 protocol scores and standardized vocabulary testing (Expressive One Word Picture Vocabulary Test, EOWPVT), with secondary evaluation via parent-based assessments (Aberrant Behavior Checklist (ABC) scores, Autism Treatment Evaluation Checklist (ATEC) scores, Clinical Global Impression of Improvement (CGI) scores, and Repetitive Behavior Questionnaire (RBQ) scores). See General Methods for information related to behavioral test administration. Prior to the study, diagnosis of each of the enrolled participants was confirmed by ADOS-2 comparison scores of ≥7, and non-verbal IQ was tested by Leiter-3 examination. Examiner-based outcomes (ADOS and EOWPVT) were assessed at 2-days and 6-weeks after the infusion. Parent-based outcomes (ABC, ATEC, CGI, and RBQ) were assessed at 7-days and 6-weeks after the infusion. To minimize the effects of natural behavioral variability, the parents were instructed to mark a behavior as changed only if it was persistently changed for at least 1 week. […]
smiles,measurement,setting,value
"Cc1ccc(C(=O)Nc2ccc(S(=O)(=O)O)c3cc(S(=O)(=O)O)cc(S(=O)(=O)O)c23)cc1NC(=O)c1cccc(NC(=O)Nc2cccc(C(=O)Nc3cc(C(=O)Nc4ccc(S(=O)(=O)O)c5cc(S(=O)(=O)O)cc(S(=O)(=O)O)c45)ccc3C)c2)c1 [Suramin, suramin]",symptoms covered in the CGI that were significant,"6-weeks, 24 symptoms (FIG. 10C)",Four of 24
same,Difference from baseline (mean ± sd),CGI E. Language (expressive language),−2.0 ± 1.04
same,d (Cohen's d),CGI E. Language,1.9
same,Difference from baseline (mean ± sd),CGI Overall ASD symptoms,−1.8 ± 1.04
same,d (Cohen's d),CGI Overall ASD symptoms,1.7
same,Difference from baseline (mean ± sd),CGI Social Inter. (social interaction),−2.0 ± 1.04
same,d (Cohen's d),CGI Social Inter.,1.9
